One test relates to human and animal plasma. Description: Determination of anticoagulatory activity: activated partial thromboplastin time (aPTT) in plasma. The note with it: concentration of test substance which brings about a 1.5-fold extension of the aPTT; plasma in vitro, C.K. Prest kit. How it is done: The anticoagulatory activity of the test substances is determined in vitro in human and animal plasma (for example mouse, rat, rabbit, pig and dog plasma). To this end, blood is drawn off in a mixing ratio of sodium citrate/blood of 1:9 using a 0.11 molar sodium citrate solution as receiver. Immediately after the blood has been drawn off, it is mixed thoroughly and centrifuged at about 4000 g for 15 minutes. The supernatant is pipetted off.
The activated partial thromboplastin time (aPTT) is determined in the presence of varying concentrations of test substance or the corresponding solvent using a commercial test kit (C.K. Prest from Diagnostica Stago). The test compounds are incubated with the plasma and the PTT reagent (cephalin, kaolin) at 37° C. for 3 minutes. Coagulation is then started by addition of a 25 mM aqueous calcium chloride solution, and the time when coagulation occurs is determined. The concentration of test substance which brings about a 1.5-fold extension of the aPTT is determined.

The target of the next test is T1, human factor XIa (Homo sapiens, UniProt P03951).
T1 construct: purchased Kordia
Nature of the test: Measurement of FXIa inhibition (fluorogenic peptide substrate Boc-Glu(OBzl)-Ala-Arg-AMC). It is filed as biochemical. To be noted: factor XIa from Kordia 0.45 nM, 15 min pre-incubation, 30 min at 22° C., fluorescence. How it is done:
The factor XIa inhibition of the substances according to the invention is determined using a biochemical test system which utilizes the reaction of a peptidic factor XIa substrate to determine the enzymatic activity of human factor XIa. Here, factor XIa cleaves from the peptic factor XIa substrate the C-terminal aminomethylcoumarin (AMC), the fluorescence of which is measured. The determinations are carried out in microtitre plates.
Test substances are dissolved in dimethyl sulphoxide and serially diluted in dimethyl sulphoxide (3000 μM to 0.0078 μM; resulting final concentrations in the test: 50 μM to 0.00013 μM). In each case 1 μl of the diluted substance solutions is placed into the wells of white microtitre plates from Greiner (384 wells). Subsequently, the following are added successively: 20 μl of assay buffer (50 mmol/l Tris buffer pH 7.4; 100 mmol/l sodium chloride; 5 mmol/l calcium chloride; 0.1% bovine serum albumin) and 20 μl of factor XIa from Kordia (0.45 nM in assay buffer). After 15 min of incubation, the enzyme reaction is started by addition of 20 μl of the factor XIa substrate Boc-Glu(OBzl)-Ala-Arg-AMC dissolved in assay buffer (10 μM in assay buffer) from Bachem, the mixture is incubated at room temperature (22° C.) for 30 min and fluorescence is then measured (excitation: 360 nm, emission: 460 nm). The measured emissions of the test batches with test substance are compared to those of control batches without test substance (only dimethyl sulphoxide instead of test substance in dimethyl sulphoxide), and IC50 values are calculated from the concentration/activity relationships.

pIC50: −log10 of the molar value. Structures can show the parent of a compound that is named as a salt.

T1 sequence (P03951 388-625 limits assumed): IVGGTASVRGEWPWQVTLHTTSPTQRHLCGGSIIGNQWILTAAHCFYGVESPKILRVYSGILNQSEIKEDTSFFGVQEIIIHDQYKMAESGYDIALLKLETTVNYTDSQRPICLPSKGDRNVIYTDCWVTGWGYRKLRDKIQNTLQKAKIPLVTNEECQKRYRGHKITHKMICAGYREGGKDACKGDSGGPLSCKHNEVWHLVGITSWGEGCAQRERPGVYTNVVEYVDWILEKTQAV
T1 sequence (P03951 19-387 partner limits assumed): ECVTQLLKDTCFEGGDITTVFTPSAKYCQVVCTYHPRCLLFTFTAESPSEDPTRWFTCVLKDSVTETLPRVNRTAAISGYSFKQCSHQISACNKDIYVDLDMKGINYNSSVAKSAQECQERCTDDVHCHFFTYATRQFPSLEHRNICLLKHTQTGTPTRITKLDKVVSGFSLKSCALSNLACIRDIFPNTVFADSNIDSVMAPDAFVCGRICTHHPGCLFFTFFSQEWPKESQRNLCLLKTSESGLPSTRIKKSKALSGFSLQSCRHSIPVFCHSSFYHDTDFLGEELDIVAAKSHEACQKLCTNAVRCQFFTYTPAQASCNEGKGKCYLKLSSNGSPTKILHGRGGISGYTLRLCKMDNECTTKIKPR

The term pIC50 denotes the negative decadic logarithm of the IC50, by convention in mol/L. In turn, `COc1ccc(C[C@H](NC(=O)[C@H]2CC[C@H](CN)CC2)C(=O)Nc2ccc(-c3nn[nH]n3)cc2)cc1-c1ccc(C(=O)NC2CCNCC2)cc1C` [Example 56, 5′-[(2S)-2-({[trans-4-(Aminomethyl)cyclohexyl]carbonyl}amino)-3-oxo-3-{[4-(2H-tetrazol-5-yl)phenyl]amino}propyl]-2′-methoxy-2-methyl-N-(piperidin-4-yl)biphenyl-4-carboxamide hydrochloride] yielded an aPTT in the test on human and animal plasma of 0.28 µmol/L. This compound showed a pIC50 at human factor XIa of 7.82.

On to `Cc1cc(N2CCOCC2)ncc1-c1cccc(C[C@H](NC(=O)[C@H]2CC[C@H](CN)CC2)C(=O)Nc2ccc(-c3nnc(Cl)[nH]3)cc2)c1` [Example 102, N-alpha-{[trans-4-(Aminomethyl)cyclohexyl]carbonyl}-N-[4-(3-chloro-4H-1,2,4-triazol-5-yl)phenyl]-3-[4-methyl-6-(morpholin-4-yl)pyridin-3-yl]-L-phenylalaninamide hydrochloride], for which the aPTT in the test with human and animal plasma was 0.43 µmol/L. The same compound had a pIC50 at human factor XIa of 8.66.

As for `Cc1ccc(N)cc1-c1cccc(C[C@H](NC(=O)[C@H]2CC[C@H](CN)CC2)C(=O)Nc2ccc(-c3nnn[nH]3)cc2)c1` [Example 103, trans-4-(Aminomethyl)-N-[(2S)-3-(5′-amino-2′-methylbiphenyl-3-yl)-1-oxo-1-{[4-(1H-tetrazol-5-yl)phenyl]amino}propan-2-yl]cyclohexanecarboxamide hydrochloride], the aPTT in the test on human and animal plasma turned out to be 0.1 µmol/L. Moreover, the pIC50 against human factor XIa is 8.48.

The compound `CN(C)c1ncc(-c2cccc(C[C@H](NC(=O)[C@H]3CC[C@H](CN)CC3)C(=O)Nc3ccc(-c4nnn[nH]4)cc3)c2)c(OCc2ccccc2)n1` [Example 78, N-alpha-{[trans-4-(Aminomethyl)cyclohexyl]carbonyl}-3-[4-(benzyloxy)-2-(dimethylamino)pyrimidin-5-yl]-N-[4-(1H-tetrazol-5-yl)phenyl]-L-phenylalaninamide hydrochloride] displayed an aPTT in the test on human and animal plasma of 0.19 µmol/L. This compound also showed a pIC50 at human factor XIa of 8.64.

Compound `NC[C@H]1CC[C@H](C(=O)N[C@@H](Cc2cccc(-c3cnc(N4CCNCC4)nc3)c2)C(=O)Nc2ccc(-c3nnn[nH]3)cc2)CC1` [Example 68, N-alpha-{[trans-4-(Aminomethyl)cyclohexyl]carbonyl}-3-[2-(piperazin-1-yl)pyrimidin-5-yl]-N-[4-(1H-tetrazol-5-yl)phenyl]-L-phenylalaninamide hydrochloride] showed an aPTT in the test on human and animal plasma of 0.18 µmol/L. On human factor XIa, this compound gave a pIC50 of 8.14.

The compound `NC[C@H]1CC[C@H](C(=O)N[C@@H](Cc2cccc(-c3cnc(N4CCNCC4)nc3)c2)C(=O)Nc2ccc3[nH]c(=O)[nH]c3c2)CC1` [Example 67, N-alpha-{[trans-4-(Aminomethyl)cyclohexyl]carbonyl}-N-(2-oxo-2,3-dihydro-1H-benzimidazol-5-yl)-3-[2-(piperazin-1-yl)pyrimidin-5-yl]-L-phenylalaninamide hydrochloride] came in with an aPTT in the test with human and animal plasma of 0.15 µmol/L. For the same compound, the pIC50 against human factor XIa was 7.43.

Turning to `Cc1ccc(C(=O)NCCOCCOCCO)cc1-c1cccc(C[C@H](NC(=O)[C@H]2CC[C@H](CN)CC2)C(=O)Nc2ccc(-c3nnn[nH]3)cc2)c1` [Example 21, 3′-[(2S)-2-({[trans-4-(Aminomethyl)cyclohexyl]carbonyl}amino)-3-oxo-3-{[4-(1H-tetrazol-5-yl)phenyl]amino}propyl]-N-{2-[2-(2-hydroxyethoxy)ethoxy]ethyl}-6-methylbiphenyl-3-carboxamide hydrochloride], in the test with human and animal plasma, the aPTT is 0.19 µmol/L. The compound also had a pIC50 at human factor XIa of 8.64.

Consider `COc1ccc(-c2cccc(C[C@H](NC(=O)[C@H]3CC[C@H](CN)CC3)C(=O)Nc3ccc(-c4nnn[nH]4)cc3)c2)cc1S(=O)(=O)N1CCOCC1` [Example 8, trans-4-(Aminomethyl)-N-[(2S)-3-[4′-methoxy-3′-(morpholin-4-ylsulphonyl)biphenyl-3-yl]-1-oxo-1-{[4-(1H-tetrazol-5-yl)phenyl]amino}propan-2-yl]cyclohexanecarboxamide hydrochloride], for which the aPTT in the test on human and animal plasma worked out at 0.41 µmol/L. In addition, at human factor XIa, the pIC50 is 8.42.

Consider `Cc1ccc(S(=O)(=O)NCc2ccccc2)cc1-c1cccc(C[C@H](NC(=O)[C@H]2CC[C@H](CN)CC2)C(=O)Nc2ccc(-c3noc(=O)[nH]3)cc2)c1` [Example 60, trans-4-(Aminomethyl)-N-[(2S)-3-[5′-(benzylsulphamoyl)-2′-methylbiphenyl-3-yl]-1-oxo-1-{[4-(5-oxo-4,5-dihydro-1,2,4-oxadiazol-3-yl)phenyl]amino}propan-2-yl]cyclohexanecarboxamide hydrochloride], for which, in the test on human and animal plasma, the aPTT was 0.21 µmol/L. The same compound gave a pIC50 against human factor XIa of 8.85.

Take `NC[C@H]1CC[C@H](C(=O)N[C@@H](Cc2cccc(-c3cccc(C(=O)NCCN4CCCC4)c3)c2)C(=O)Nc2ccc(-c3nnn[nH]3)cc2)CC1` [Example 61, 3′-[(2S)-2-({[trans-4-(Aminomethyl)cyclohexyl]carbonyl}amino)-3-oxo-3-{[4-(1H-tetrazol-5-yl)phenyl]amino}propyl]-N-[2-(pyrrolidin-1-yl)ethyl]biphenyl-3-carboxamide hydrochloride]: the aPTT in the test on human and animal plasma stood at 0.37 µmol/L. Also, the pIC50 on human factor XIa is 7.92.

With `NC[C@H]1CC[C@H](C(=O)N[C@@H](Cc2cccc(-c3cnccc3Cl)c2)C(=O)Nc2ccc(-c3noc(=O)[nH]3)cc2)CC1` [Example 107, N-alpha-{[trans-4-(Aminomethyl)cyclohexyl]carbonyl}-3-(4-chloropyridin-3-yl)-N-[4-(5-oxo-4,5-dihydro-1,2,4-oxadiazol-3-yl)phenyl]-L-phenylalaninamide hydrochloride], the aPTT in the test on human and animal plasma worked out at 0.7 µmol/L. The compound also gave a pIC50 on human factor XIa of 8.21.

Turning to `Cc1ccc(C[C@H](NC(=O)[C@H]2CC[C@H](CN)CC2)C(=O)Nc2ccc(-c3nnn[nH]3)cc2)cc1-c1cccc(C(=O)N2CCOCC2)c1` [Example 17, trans-4-(Aminomethyl)-N-[(2S)-3-[6-methyl-3′-(morpholin-4-ylcarbonyl)biphenyl-3-yl]-1-oxo-1-{[4-(1H-tetrazol-5-yl)phenyl]amino}propan-2-yl]cyclohexanecarboxamide hydrochloride], the aPTT in the test on human and animal plasma was determined as 0.19 µmol/L. For the same compound, the pIC50 on human factor XIa is 8.39.

Take `CCN(CC)CCNC(=O)c1cccc(-c2cccc(C[C@H](NC(=O)[C@H]3CC[C@H](CN)CC3)C(=O)Nc3ccc(-c4nnn[nH]4)cc3)c2)c1` [Example 34, 3′-[(2S)-2-({[trans-4-(Aminomethyl)cyclohexyl]carbonyl}amino)-3-oxo-3-{[4-(1H-tetrazol-5-yl)phenyl]amino}propyl]-N-[2-(diethylamino)ethyl]biphenyl-3-carboxamide hydrochloride]: the aPTT in the test with human and animal plasma was found to be 0.26 µmol/L. This compound also showed a pIC50 on human factor XIa of 8.07.

Compound `CCN(CC)CCNC(=O)c1ccc(-c2cccc(C[C@H](NC(=O)[C@H]3CC[C@H](CN)CC3)C(=O)Nc3ccc(-c4nnn[nH]4)cc3)c2)cc1` [Example 42, 3′-[(2S)-2-({[trans-4-(Aminomethyl)cyclohexyl]carbonyl}amino)-3-oxo-3-{[4-(1H-tetrazol-5-yl)phenyl]amino}propyl]-N-[2-(diethylamino)ethyl]biphenyl-4-carboxamide hydrochloride] displayed an aPTT in the test with human and animal plasma of 0.35 µmol/L. Besides, the pIC50 against human factor XIa was 7.96.

`CN(C)CCCOc1ccc(-c2cccc(C[C@H](NC(=O)[C@H]3CC[C@H](CN)CC3)C(=O)Nc3ccc4[nH]c(=O)[nH]c4c3)c2)cn1` [Example 100, N-alpha-{[trans-4-(Aminomethyl)cyclohexyl]carbonyl}-3-{6-[3-(dimethylamino)propoxy]pyridin-3-yl}-N-(2-oxo-2,3-dihydro-1H-benzimidazol-5-yl)-L-phenylalaninamide hydrochloride]: the aPTT with human and animal plasma amounted to 0.34 µmol/L. Moreover, the pIC50 against human factor XIa is 7.23.

On to `Cc1ccc(S(=O)(=O)N2CCOCC2)cc1-c1cccc(C[C@H](NC(=O)[C@H]2CC[C@H](CN)CC2)C(=O)Nc2ccc(-c3n[nH]c(=O)[nH]3)cc2)c1` [Example 9, trans-4-(Aminomethyl)-N-[(2S)-3-[2′-methyl-5′-(morpholin-4-ylsulphonyl)biphenyl-3-yl]-1-oxo-1-{[4-(5-oxo-4,5-dihydro-1H-1,2,4-triazol-3-yl)phenyl]amino}propan-2-yl]cyclohexanecarboxamide hydrochloride], for which the aPTT in the test with human and animal plasma came to 0.14 µmol/L. The compound further had a pIC50 on human factor XIa of 8.02.

The values above are taken from patent US20160244437A1, “SUBSTITUTED PHENYLALANINE DERIVATIVES” (BAYER PHARMA AKTIENGESELLSCHAFT, priority 2013, published 2016).
